# Measured values published in publication PMC4300089, “Structure-Guided Design of Selective Epac1 and Epac2 Agonists” (PLoS Biology, 2015).
# Biological target: T1, Epac2^Δ280 (Mus musculus, UniProt Q9EQZ6)
# T1 construct: made in house
# T1 sequence (Q9EQZ6 281-993 isoform Q9EQZ6-3): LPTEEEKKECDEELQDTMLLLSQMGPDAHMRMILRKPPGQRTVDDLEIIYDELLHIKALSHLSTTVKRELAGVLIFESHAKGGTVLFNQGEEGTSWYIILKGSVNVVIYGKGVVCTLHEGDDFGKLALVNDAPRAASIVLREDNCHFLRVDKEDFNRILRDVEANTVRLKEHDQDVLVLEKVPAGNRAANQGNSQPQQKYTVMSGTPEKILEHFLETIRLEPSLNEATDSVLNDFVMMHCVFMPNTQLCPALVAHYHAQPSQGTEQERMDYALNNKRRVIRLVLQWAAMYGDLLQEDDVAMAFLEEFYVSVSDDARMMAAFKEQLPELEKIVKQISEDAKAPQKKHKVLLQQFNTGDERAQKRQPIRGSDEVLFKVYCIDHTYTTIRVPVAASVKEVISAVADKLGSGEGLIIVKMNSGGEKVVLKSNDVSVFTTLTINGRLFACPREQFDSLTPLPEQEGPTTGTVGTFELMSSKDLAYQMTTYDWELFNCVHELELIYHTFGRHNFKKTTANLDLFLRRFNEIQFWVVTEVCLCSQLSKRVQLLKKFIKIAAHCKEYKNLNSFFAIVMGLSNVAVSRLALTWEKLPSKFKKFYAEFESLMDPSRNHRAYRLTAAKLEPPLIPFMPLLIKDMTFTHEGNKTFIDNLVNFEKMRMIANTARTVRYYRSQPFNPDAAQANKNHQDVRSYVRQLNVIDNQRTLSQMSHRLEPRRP
# Test: Epac activation assay (Rap1B•mGDP fluorescence nucleotide exchange), Epac2^Δ280
# Type: biochemical
# Details: Epac2^Δ280
# Method: Murine Epac2 was used as all previous structural studies were performed with it.
# The activity of Epac was determined by a fluorescence assay. […] The fluorescence intensity of Rap1B•mGDP is approximately twice that of free mGDP, and thus, nucleotide exchange can be observed as a decay in fluorescence upon the addition of excess unlabeled GDP.
row,SMILES,AC50 [µM]
1,"Nc1ncnc2c1nc(SCCc1ccccc1)n2[C@@H]1O[C@@H]2CO[P@](O)(=S)O[C@H]2[C@H]1O [S-190, Sp-8-PheET-cAMPS]",0.14
2,"CO[C@H]1C2OP(O)(=S)OC[C@H]2O[C@H]1n1c(Sc2ccc(Cl)cc2)nc2c(N)ncnc21 (stereo partly shown) [S-211, Sp-8-pCPT-2′-O-Me-cAMPS]",1.4
3,"Nc1ncnc2c1nc(SCc1ccccc1Cl)n2[C@@H]1O[C@@H]2CO[P@](O)(=S)O[C@H]2[C@H]1O [S-270, Sp-8-oCBnT-cAMPS]",0.27
4,"COc1ccc(Sc2nc3c(N)ncnc3n2[C@@H]2O[C@@H]3COP(=O)(O)OC3[C@@H]2OC)cc1 (stereo partly drawn) [D-009, 8-pMeOPT-2′-O-Me-cAMP]",2.8
5,"Nc1ncnc2c1ncn2[C@@H]1O[C@@H]2COP(=O)(O)O[C@H]2[C@H]1F [Z-002, 2′-F-cAMP]",25
6,"Nc1ncnc2c1nc(Br)n2[C@@H]1O[C@@H]2CO[P@](O)(=S)O[C@H]2[C@H]1Cl [S-013, Sp-8-Br-2′-Cl-cAMPS]",8
7,"O[C@@H]1[C@@H]2OP(O)(=S)OC[C@H]2O[C@H]1n1cnc2cc(Cl)c(Cl)cc21 (stereo partly shown) [S-400, Sp-5,6-DCl-cBIMPS]",0.9
8,"Nc1ncnc2c1nc(Sc1ccc(Cl)cc1)n2[C@@H]1O[C@@H]2COP([O-])(=S)O[C@H]2[C@H]1O.[Na+] (stereo partly shown) [S-210, Sp-8-pCPT-cAMPS]",0.13
9,"Nc1ncnc2c1nc(NC1CCCCC1)n2[C@@H]1O[C@@H]2COP(=O)(O)O[C@H]2[C@H]1O [L-013, 8-cHA-cAMP]",4.7
10,"CNc1nc2c(N)ncnc2n1[C@@H]1O[C@@H]2COP(=O)(O)O[C@H]2[C@H]1Cl [D-001, 8-MeA-2′-Cl-cAMP]",45
11,"CNc1nc2c(N)ncnc2n1[C@H]1C[C@@H]2O[P@@](O)(=S)OC[C@H]2O1 [S-031, Sp-8-MeA-2′-dcAMPS]",40
12,"Nc1ncnc2c1ncn2[C@@H]1O[C@@H]2COP(=O)(O)O[C@H]2[C@H]1OCc1ccccc1 [Z-008, 2′-O-Bn-cAMP]",35
13,"Nc1ncnc2c1nc([Se]Cc1ccccc1)n2[C@@H]1O[C@@H]2COP(=O)(O)O[C@H]2[C@H]1OCc1ccccc1 [D-012, 8-BnSe-2′-O-Bn-cAMP]",4.6
14,"Nc1ncnc2c1nc(OCc1ccccc1)n2[C@@H]1O[C@@H]2COP(=O)(O)O[C@H]2[C@H]1O [L-023, 8-BnO-cAMP]",1.3
15,"CCN(CC)c1nc2c(N)ncnc2n1[C@@H]1O[C@@H]2COP(=O)(O)O[C@H]2[C@H]1O [L-016, 8-DEA-cAMP]",9

# Same assay, conditions: Epac2^Δ280; maximal activity relative to cAMP
row,SMILES,Rel. kmax
1,"Nc1ncnc2c1nc(SCCc1ccccc1)n2[C@@H]1O[C@@H]2CO[P@](O)(=S)O[C@H]2[C@H]1O [S-190, Sp-8-PheET-cAMPS]",0.4
2,"CO[C@H]1C2OP(O)(=S)OC[C@H]2O[C@H]1n1c(Sc2ccc(Cl)cc2)nc2c(N)ncnc21 (stereo partly shown) [S-211, Sp-8-pCPT-2′-O-Me-cAMPS]",0.4
3,"Nc1ncnc2c1nc(SCc1ccccc1Cl)n2[C@@H]1O[C@@H]2CO[P@](O)(=S)O[C@H]2[C@H]1O [S-270, Sp-8-oCBnT-cAMPS]",3.1
4,"COc1ccc(Sc2nc3c(N)ncnc3n2[C@@H]2O[C@@H]3COP(=O)(O)OC3[C@@H]2OC)cc1 (stereo partly drawn) [D-009, 8-pMeOPT-2′-O-Me-cAMP]",0.5
5,"Nc1ncnc2c1ncn2[C@@H]1O[C@@H]2COP(=O)(O)O[C@H]2[C@H]1F [Z-002, 2′-F-cAMP]",1.0
6,"Nc1ncnc2c1nc(Br)n2[C@@H]1O[C@@H]2CO[P@](O)(=S)O[C@H]2[C@H]1Cl [S-013, Sp-8-Br-2′-Cl-cAMPS]",0.5
7,"O[C@@H]1[C@@H]2OP(O)(=S)OC[C@H]2O[C@H]1n1cnc2cc(Cl)c(Cl)cc21 (stereo partly shown) [S-400, Sp-5,6-DCl-cBIMPS]",0.8
8,"Nc1ncnc2c1nc(Sc1ccc(Cl)cc1)n2[C@@H]1O[C@@H]2COP([O-])(=S)O[C@H]2[C@H]1O.[Na+] (stereo partly shown) [S-210, Sp-8-pCPT-cAMPS]",0.7
9,"Nc1ncnc2c1nc(NC1CCCCC1)n2[C@@H]1O[C@@H]2COP(=O)(O)O[C@H]2[C@H]1O [L-013, 8-cHA-cAMP]",0.3
10,"CNc1nc2c(N)ncnc2n1[C@@H]1O[C@@H]2COP(=O)(O)O[C@H]2[C@H]1Cl [D-001, 8-MeA-2′-Cl-cAMP]",2.2
11,"CNc1nc2c(N)ncnc2n1[C@H]1C[C@@H]2O[P@@](O)(=S)OC[C@H]2O1 [S-031, Sp-8-MeA-2′-dcAMPS]",1.7
12,"Nc1ncnc2c1ncn2[C@@H]1O[C@@H]2COP(=O)(O)O[C@H]2[C@H]1OCc1ccccc1 [Z-008, 2′-O-Bn-cAMP]",0.4
13,"Nc1ncnc2c1nc([Se]Cc1ccccc1)n2[C@@H]1O[C@@H]2COP(=O)(O)O[C@H]2[C@H]1OCc1ccccc1 [D-012, 8-BnSe-2′-O-Bn-cAMP]",1.0
14,"Nc1ncnc2c1nc(OCc1ccccc1)n2[C@@H]1O[C@@H]2COP(=O)(O)O[C@H]2[C@H]1O [L-023, 8-BnO-cAMP]",1.6
15,"CCN(CC)c1nc2c(N)ncnc2n1[C@@H]1O[C@@H]2COP(=O)(O)O[C@H]2[C@H]1O [L-016, 8-DEA-cAMP]",5.1

# Biological target: T2, Epac1 (Homo sapiens, UniProt O95398)
# T2 construct: made in house
# T2 sequence (O95398 150-881 isoform O95398-3): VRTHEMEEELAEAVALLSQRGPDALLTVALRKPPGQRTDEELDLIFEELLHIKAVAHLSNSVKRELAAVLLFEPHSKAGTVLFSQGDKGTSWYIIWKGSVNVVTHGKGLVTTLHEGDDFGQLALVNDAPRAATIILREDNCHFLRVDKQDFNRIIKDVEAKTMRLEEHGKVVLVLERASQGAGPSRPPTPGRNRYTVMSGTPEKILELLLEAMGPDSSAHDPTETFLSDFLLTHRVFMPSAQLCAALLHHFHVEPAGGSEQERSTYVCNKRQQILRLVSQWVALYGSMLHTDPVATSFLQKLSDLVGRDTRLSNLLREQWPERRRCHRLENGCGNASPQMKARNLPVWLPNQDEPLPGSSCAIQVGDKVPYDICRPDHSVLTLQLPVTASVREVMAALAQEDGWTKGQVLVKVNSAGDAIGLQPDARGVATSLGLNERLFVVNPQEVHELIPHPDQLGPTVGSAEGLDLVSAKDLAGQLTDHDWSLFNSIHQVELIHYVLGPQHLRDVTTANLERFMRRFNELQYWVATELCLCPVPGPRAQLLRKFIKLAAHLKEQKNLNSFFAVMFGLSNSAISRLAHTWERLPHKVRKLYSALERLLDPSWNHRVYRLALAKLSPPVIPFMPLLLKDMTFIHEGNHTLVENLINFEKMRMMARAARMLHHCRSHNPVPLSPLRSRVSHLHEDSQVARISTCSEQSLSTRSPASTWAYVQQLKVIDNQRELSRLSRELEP
# Test: Epac activation assay, Epac1
# Type: biochemical
# Details: Epac1
row,SMILES,AC50 [µM]
1,"Nc1ncnc2c1nc(SCCc1ccccc1)n2[C@@H]1O[C@@H]2CO[P@](O)(=S)O[C@H]2[C@H]1O [S-190, Sp-8-PheET-cAMPS]",6
2,"CO[C@H]1C2OP(O)(=S)OC[C@H]2O[C@H]1n1c(Sc2ccc(Cl)cc2)nc2c(N)ncnc21 (stereo partly shown) [S-211, Sp-8-pCPT-2′-O-Me-cAMPS]",7.3
3,"Nc1ncnc2c1nc(SCc1ccccc1Cl)n2[C@@H]1O[C@@H]2CO[P@](O)(=S)O[C@H]2[C@H]1O [S-270, Sp-8-oCBnT-cAMPS]",16
4,"COc1ccc(Sc2nc3c(N)ncnc3n2[C@@H]2O[C@@H]3COP(=O)(O)OC3[C@@H]2OC)cc1 (stereo partly drawn) [D-009, 8-pMeOPT-2′-O-Me-cAMP]",2.3
5,"Nc1ncnc2c1ncn2[C@@H]1O[C@@H]2COP(=O)(O)O[C@H]2[C@H]1F [Z-002, 2′-F-cAMP]",1500
6,"Nc1ncnc2c1nc(Br)n2[C@@H]1O[C@@H]2CO[P@](O)(=S)O[C@H]2[C@H]1Cl [S-013, Sp-8-Br-2′-Cl-cAMPS]",110
7,"O[C@@H]1[C@@H]2OP(O)(=S)OC[C@H]2O[C@H]1n1cnc2cc(Cl)c(Cl)cc21 (stereo partly shown) [S-400, Sp-5,6-DCl-cBIMPS]",14
8,"Nc1ncnc2c1nc(Sc1ccc(Cl)cc1)n2[C@@H]1O[C@@H]2COP([O-])(=S)O[C@H]2[C@H]1O.[Na+] (stereo partly shown) [S-210, Sp-8-pCPT-cAMPS]",2.2
9,"Nc1ncnc2c1nc(NC1CCCCC1)n2[C@@H]1O[C@@H]2COP(=O)(O)O[C@H]2[C@H]1O [L-013, 8-cHA-cAMP]",50
10,"CNc1nc2c(N)ncnc2n1[C@@H]1O[C@@H]2COP(=O)(O)O[C@H]2[C@H]1Cl [D-001, 8-MeA-2′-Cl-cAMP]",330
11,"CNc1nc2c(N)ncnc2n1[C@H]1C[C@@H]2O[P@@](O)(=S)OC[C@H]2O1 [S-031, Sp-8-MeA-2′-dcAMPS]",320
12,"Nc1ncnc2c1ncn2[C@@H]1O[C@@H]2COP(=O)(O)O[C@H]2[C@H]1OCc1ccccc1 [Z-008, 2′-O-Bn-cAMP]",75
13,"Nc1ncnc2c1nc([Se]Cc1ccccc1)n2[C@@H]1O[C@@H]2COP(=O)(O)O[C@H]2[C@H]1OCc1ccccc1 [D-012, 8-BnSe-2′-O-Bn-cAMP]",38

# Same assay, conditions: Epac1; maximal activity relative to cAMP
row,SMILES,Rel. kmax
1,"Nc1ncnc2c1nc(SCCc1ccccc1)n2[C@@H]1O[C@@H]2CO[P@](O)(=S)O[C@H]2[C@H]1O [S-190, Sp-8-PheET-cAMPS]",0.2
2,"CO[C@H]1C2OP(O)(=S)OC[C@H]2O[C@H]1n1c(Sc2ccc(Cl)cc2)nc2c(N)ncnc21 (stereo partly shown) [S-211, Sp-8-pCPT-2′-O-Me-cAMPS]",1.9
3,"Nc1ncnc2c1nc(SCc1ccccc1Cl)n2[C@@H]1O[C@@H]2CO[P@](O)(=S)O[C@H]2[C@H]1O [S-270, Sp-8-oCBnT-cAMPS]",0.2
4,"COc1ccc(Sc2nc3c(N)ncnc3n2[C@@H]2O[C@@H]3COP(=O)(O)OC3[C@@H]2OC)cc1 (stereo partly drawn) [D-009, 8-pMeOPT-2′-O-Me-cAMP]",2.7
5,"Nc1ncnc2c1nc(Br)n2[C@@H]1O[C@@H]2CO[P@](O)(=S)O[C@H]2[C@H]1Cl [S-013, Sp-8-Br-2′-Cl-cAMPS]",0.1
6,"O[C@@H]1[C@@H]2OP(O)(=S)OC[C@H]2O[C@H]1n1cnc2cc(Cl)c(Cl)cc21 (stereo partly shown) [S-400, Sp-5,6-DCl-cBIMPS]",1.0
7,"Nc1ncnc2c1nc(Sc1ccc(Cl)cc1)n2[C@@H]1O[C@@H]2COP([O-])(=S)O[C@H]2[C@H]1O.[Na+] (stereo partly shown) [S-210, Sp-8-pCPT-cAMPS]",0.5
8,"Nc1ncnc2c1nc(NC1CCCCC1)n2[C@@H]1O[C@@H]2COP(=O)(O)O[C@H]2[C@H]1O [L-013, 8-cHA-cAMP]",0.3
9,"CNc1nc2c(N)ncnc2n1[C@@H]1O[C@@H]2COP(=O)(O)O[C@H]2[C@H]1Cl [D-001, 8-MeA-2′-Cl-cAMP]",~0.6?
10,"CNc1nc2c(N)ncnc2n1[C@H]1C[C@@H]2O[P@@](O)(=S)OC[C@H]2O1 [S-031, Sp-8-MeA-2′-dcAMPS]",0.1
11,"Nc1ncnc2c1ncn2[C@@H]1O[C@@H]2COP(=O)(O)O[C@H]2[C@H]1OCc1ccccc1 [Z-008, 2′-O-Bn-cAMP]",1.5
12,"Nc1ncnc2c1nc([Se]Cc1ccccc1)n2[C@@H]1O[C@@H]2COP(=O)(O)O[C@H]2[C@H]1OCc1ccccc1 [D-012, 8-BnSe-2′-O-Bn-cAMP]",0.9
